Data as given in patent US20230122932A1, “NEW SEX PHEROMONE COMPONENTS FOR THE FALL ARMYWORM, SPODOPTERA FRUGIPERDA” (North Carolina State University, priority 2020, published 2023).
Entries after “also recorded” stand apart in the source; their conditions may differ.

Tests used:
antenna of FAW males = assay: GC-EAD electrophysiology of female pheromone gland extract on male antenna; design: species or system Spodoptera frugiperda; conditions: 1 μl female pheromone gland extract
Method: Electrophysiology: The sex pheromone gland of ten 3-4-day old FAW females was dissected and placed in a glass insert containing 30 μl hexane (SupraSolv®; MilliporeSigma, Burlington, Mass., United States of America). After 10 min, the hexane extract was transferred to a second insert and concentrated down to 10 μl under a gentle flow of nitrogen. A gas chromatograph coupled to an electroantennogram detector (GC-EAD) was used to identify biologically active compounds that are perceived by the antenna of FAW males, since the antenna is the main olfactory organ of insects. The GC separates chemical mixes into individual compounds and directs them to the insect antenna, which is connected to an amplifier, the EAD. In parallel to the GC, the electrophysiological response of the antenna is recorded to identify the active compounds. An aliquot of 1 μl of the pheromone gland extract was injected in the GC-EAD where a male FAW antenna was mounted. Clean hexane that was handled in the same manner without glands was used as control.

FAW males = assay: No-choice linear olfactometer behavioral assay; format: in vivo, Spodoptera frugiperda
Method: Behavioral Assay: A no-choice linear olfactometer assay was used to test the behavior of FAW males to different formulations. The olfactometer consists of a linear Plexiglas® tube (n=6 cm i.d., length=145 cm) that was connected to an air pump that generated an internal airflow speed of 0.1 m/s. A short Plexiglas® chamber filled with activated charcoal was connected to the opposite end of the olfactometer to filter the inward air. […] An aliquot of […] was added to a piece of filter paper and solvent was left to evaporate for 30 min at room temperature. Filter papers were introduced to the olfactometer through an opening (0=2 cm) on the top of the olfactometer, 4 cm away from the charcoal filter. Filter papers were tested only once. Moths were tested for 5 minutes and the sequence of their behavioral response was recorded as: activation (wing fanning and start moving upwind), reaching the half-way point of the olfactometer (HW), close approach to the odor source (CA), and source contact (contact). The experiment was conducted 4-7 hours into the scotophase.
The tested formulations were: […]
(§1) Statistical analysis: All statistical analyses were performed in R (version 3.5.1). Behavioral responses of male FAW to formulations in the olfactometer were analyzed by binomial generalized linear model. Numbers of male FAW catches in the same day were combined per treatment and analyzed by Poisson generalized linear model (GLM). Treatments that had no catches were not included in the analyses.

male FAW [1] = assay: Field assays, Hartstack traps in cotton field, 2-component pheromone mix with nonanal; format: in vivo, Spodoptera frugiperda
Method: Field Assays: Formulations were tested under field conditions. Z9-14:OAc and Z7-12:OAc were diluted in hexane and 100 μL of the solution containing 100 μg and 0.58 μg of the respective compounds was loaded to a rubber septum (11 mm; Wheaton, DWK Life Sciences, Millville, N.J., United States of America). The septum was left inside a fume hood for 15 hr for the solvent to evaporate and then tested in field assays. Nonanal was diluted in paraffin oil and 100 μL of the solution was transferred to a vial dispenser. The solution contained either 0.1 μg or 1 μg, which corresponded to 0.1% and 1% of the amount of Z9-14:OAc. This dispenser constituted a 2 ml borosilicate vial covered with aluminum foil and contained 50 mg of deactivated glass wool. The vial was loaded with a nonanal solution and capped. […] A straightened metal paper clip pierced through the small cup of a pheromone-loaded rubber septum and was tied around the neck of a nonanal-loaded vial. This set was held by a steel alligator clip installed inside a Hartstack trap. We tested the attraction of male FAW to the following treatments: • Control: clean hexane loaded into a rubber septum and clean paraffin oil in a, vial dispenser • Pheromone mix: 100 μj of Z9-14:OAc and 0.58 μg of Z7-12:OAc in rubber septum and clean paraffin oil in vial dispenser • Pheromone 4-0.1% Nonanal: Pheromone mix in rubber septum and 0.1 μg of nonanal in vial dispenser • Pheromone+1% Nonanal: Pheromone mix in rubber septum and 1 μg of nonanal in vial dispenser
The Hartstack trap consisted of a conical body made of metal mesh with a removal top (H: 15 cm, ø=14 cm) in which males were trapped. Traps stood over the canopy of crops on rebars (L: 1.5 m) that were fixed to the ground. Traps were set for one week in a cotton field along the crop row, 15 m apart. Each experimental block consisted of 4 traps 15 m from each other. The next block was set 15 m from the first block and parallel to it. Each treatment was replicated once within a block and assigned randomly to trap positions. The number of trapped male FAW moths and other species were counted daily and traps were rotated.
A second study repeated the same procedure described above but increased the amount of Z9-14:OAc and Z7-12:OAc in the mix to 1000 μg and 5.8 μg, respectively, and nonanal to 10, 20 and 40 μg. The attraction of male FAW was tested to the following treatments: • Control: clean hexane loaded into a rubber septum and clean paraffin oil loaded into a vial dispenser • Pheromone mix: 1000 μg of Z9-14:OAc and 5.8 μg of Z7-12:OAc in rubber septum and clean paraffin oil in vial dispenser (no nonanal). • Pheromone 4-1% Nonanal: Pheromone mix in rubber septum and 10 μg of nonanal in vial dispenser. • Pheromone+2% Nonanal: Pheromone mix in rubber septum and 20 μg of nonanal in vial dispenser. • Pheromone+4% Nonanal: Pheromone mix in rubber septum and 40 μg of nonanal in vial dispenser.
as §1

male FAW [2] = assay: Field test with commercial lures plus nonanal, Hartstack traps in sorghum crop; format: in vivo, Spodoptera frugiperda
Method: Field test with commercial formulation: The effect of adding nonanal to commercial formulations was tested in a sorghum crop for five days. Lures were purchased from two commercial suppliers, referred to herein as “Commercial Supplier A” (L105A from Seemly Biologicals Inc., Billings, Mont., United States of America) and “Commercial Supplier B” (FAW 3143 from Trécé, Adair, Okla., United States of America). These lures were formulated by the respective companies in rubber septa. Nonanal was formulated in the same way as described above and a straightened metal paper clip held together both the nonanal-loaded vial and the commercial lure. This set was installed inside a Hartstack trap and traps were positioned in the same manner described above. The attraction of male FAW to the following treatments was tested: • Commercial Supplier B lure combined with clean paraffin oil in vial dispenser (no nonanal). • Commercial. Supplier B lure combined with 20 μg of nonanal in vial dispenser. • Commercial Supplier A lure combined with clean paraffin oil in vial dispenser (no nonanal). • Commercial Supplier A lure combined with 20 μg of nonanal in vial dispenser.
A second study was conducted in the same crop over a second five-day period, aimed to investigate different doses of nominal in combination with Commercial Supplier A lures. Using the same procedure described above, the attraction of male FAW was tested to the following treatments: • Commercial. Supplier A lure combined with clean paraffin oil in vial dispenser (no nonanal). • Commercial Supplier A lure combined with 10 μg of nonanal in vial dispenser. • Commercial Supplier A lure combined with 20 μg of nonanal in vial dispenser. • Commercial Supplier A lure combined with 40 μg of nonanal in vial dispenser. • Commercial Supplier A lure combined with 80 μg of nonanal in vial dispenser.
as §1

[3] = nonanal at all doses (0.05, 0.1, 1% relative to 100 ng Z9-14:OAc) added to 2-component formulation, N=15

For `CCCCCCCCC=O` [nonanal], the “antennal (EAD) response” value (antenna of FAW males) was “active; also recorded: robust antennal responses”, the “males that reached the pheromone source” value (FAW males; 1% nonanal (1 ng) added to 2-component formulation (Formulation #4), N=15) was 100% and the “effect on attraction / pheromone-triggered response of males” value (FAW males; nonanal 0.05, 0.1, 1% added to 2-component formulation, olfactometer) was “enhanced the attraction of male FAW”. The males activated (FAW males; [3]) was 100%, the “males that reached the pheromone source” value (FAW males; [3]) was “more than 66%” and the “trap catch” value (male FAW [1]; 0.1% nonanal (0.1 μg) added to 100 μg Z9-14:OAc + 0.58 μg Z7-12:OAc, cotton field) was “intermediate trap catch between the pheromone mix alone and with the addition of 1% nonanal”. The “improvement of male catches compared to the pheromone mix alone” value (male FAW [1]; 1% nonanal (1 μg) added to 100 μg Z9-14:OAc + 0.58 μg Z7-12:OAc, cotton field) was 155%, the “number of males caught per day” value (male FAW [1]; 1% nonanal added to 100 μg Z9-14:OAc + 0.58 μg Z7-12:OAc, cotton field, three traps, six days) was “highest number of males caught” and the “nonanal percentage (compared to Z9-14:OAc) that rendered the highest number of trap catches in the field” value (male FAW [1]; field assays) was 1 % (weight/weight). For the same compound, the “numbers of male FAW in traps” value (male FAW [1]; nonanal 0.1 and 1 μg added to 100 μg Z9-14:OAc + 0.58 μg Z7-12:OAc, cotton field) was “significantly increased the numbers of male FAW in traps”, the “male catches per day, more than the pheromone alone” value (male FAW [1]; second assay: 1% nonanal added to 1 mg Z9-14:OAc + 5 μg Z7-12:OAc, cotton field) was 100% and the “number of males caught per day” value (male FAW [1]; second assay: 1% nonanal added to pheromone mix (1 mg Z9-14:OAc), cotton field, nine days) was “highest number of male catches per day; also recorded: highest number of males caught”. For the same compound, the “number of males caught” value (male FAW [1]; second assay: 2% nonanal added to pheromone mix (1 mg Z9-14:OAc), cotton field) was “decreased the number of males caught and was not significantly different from the pheromone formulation alone”, the “number of males caught” value (male FAW [1]; second assay: 4% nonanal added to pheromone mix (1 mg Z9-14:OAc), cotton field) was “decreased the number of males caught and was not significantly different from the pheromone formulation alone” and the “trap catch” value (male FAW [1]; second assay: nonanal alone (1% and 4%), no pheromone mix, cotton field) was “did not yield any catch; also recorded: did not catch any males”. The “increase of trap catches compared to commercial lure alone” value (male FAW [2]; 20 μg (1%) nonanal added to Commercial Supplier A lure, sorghum field) was 46.5%, the “increase of trap catches compared to commercial lure alone” value (male FAW [2]; 20 μg (1%) nonanal added to Commercial Supplier B lure, sorghum field) was 53% and the “number of males caught per day” value (male FAW [2]; 20 μg nonanal added to Commercial Supplier A and B lures, sorghum field, four traps per treatment) was “significantly increased the number of males caught per day compared to the commercial lures alone”. For the same compound, the “number of males caught per day” value (male FAW [2]; second study (FIG. 6): nonanal added to Commercial Supplier A (Scentry) lure, sorghum field, five days) was “significantly increased the number of males caught compared to the commercial lures alone”, the “number of males caught compared to the commercial lure alone” value (male FAW [2]; second study: 80 μg (4%) nonanal added to Commercial Supplier A lure, sorghum field) was 52.4% and the “trap catches” value (male FAW [2]; second study: 1% nonanal added to Commercial Supplier A lure) was “only slightly increased the trap catches”. For the same compound, the “trap catches” value (male FAW [2]; second study: 2% nonanal added to Commercial Supplier A lure) was “only slightly increased the trap catches” and the “trap catch” value (male FAW [2]; second study: 8% nonanal added to Commercial Supplier A lure) was “decreased trap catch”.
